# From patent US20170232083A1, “METHODS OF DIAGNOSIS AND TREATMENT OF CELIAC DISEASE IN CHILDREN” (priority 2014, published 2017)
# Key:
# [1] = tested on: PBMC (polyclonal gluten-specific T cells) of paediatric and adult CD patients; assay: IFN-γ ELISpot of PBMC after 3 day oral wheat challenge (SFU, % of maximal peptide response, dominance scores, EC50; Examples 5-6); format: cell-based, human; settings: for Dominance score 3-5yrs (n = 9): CD children 3-5yrs, n = 9, following wheat challenge; for Dominance score 3-5yrs (n = 9) / Dominance score 6-10yrs (n = 10) / Dominance score 11-18yrs (n = 11): mean percentage of maximal peptide response; for Dominance score 6-10yrs (n = 10): CD children 6-10yrs, n = 10, following wheat challenge; for Dominance score 11-18yrs (n = 11): CD children 11-18yrs, n = 11, following wheat challenge; for Dominance score Mean all ages: CD children, following wheat challenge (Table 9); for Dominance scores 3-5 yrs: children with celiac disease 3-5 yrs after wheat challenge (Table 14); for Dominance scores 6-10 yrs: children with celiac disease 6-10 yrs after wheat challenge (Table 14); for Dominance scores 11-18 yrs: children with celiac disease 11-18 yrs after wheat challenge (Table 14); for Dominance scores Mean all ages: mean of all subjects (Table 14); for IFN-γ ELISpot response: after oral wheat challenge
# [2] = tested on: PBMC (polyclonal gluten-specific T cells) of paediatric and adult CD patients; settings: corresponding adult data shown for comparison (14); cited from earlier work
substance,measurement,setting,value
QPFPQPQQPIPVQ [Peptide W04],Dominance score 3-5yrs (n = 9),[1],44.5
same,Dominance score 6-10yrs (n = 10),[1],44.2
same,Dominance score 11-18yrs (n = 11),[1],47.5
same,Dominance score Mean all ages,[1],45.6
same,Dominance scores 3-5 yrs,[1],43
same,Dominance scores 6-10 yrs,[1],44
same,Dominance scores 11-18 yrs,[1],48
same,Dominance scores Mean all ages,[1],45
same,IFN-γ ELISpot response,"[1]; patient A, 11-17 yrs, cut-off 10 SFU",1 SFU
same,Significant response as percentage of maximal peptide SFU,"[1]; patient D, max peptide 30.5 SFU",′′ (21-40% = ′′)
same,IFN-γ ELISpot response,"[1]; patient E, H, 11-17 yrs, cut-off 10 SFU",51 SFU
same,Significant response as percentage of maximal peptide SFU,"[1]; patient E, max peptide 224 SFU",′′ (21-40% = ′′)
same,IFN-γ ELISpot response,"[1]; patient F, 11-17 yrs, cut-off 10 SFU",40 SFU
same,Significant response as percentage of maximal peptide SFU,"[1]; patient F, max peptide 178 SFU",′′ (21-40% = ′′)
same,IFN-γ ELISpot response,"[1]; patient G, 11-17 yrs, cut-off 10 SFU",4 SFU
same,IFN-γ ELISpot response,"[1]; patient H (HLA-DQ2.5 homozygote), 3-5yrs, cut-off 10 SFU",9 SFU
same,IFN-γ ELISpot response,"[1]; patient H, 11-17 yrs, cut-off 10 SFU",4 SFU
same,IFN-γ ELISpot response,"[1]; patient ID not given, 11-17 yrs, cut-off 10 SFU",65 SFU
same,Significant response as percentage of maximal peptide SFU,"[1]; patient ID not given, max peptide 95 SFU",′′′ (41-70% = ′′′)
same,Significant response as percentage of maximal peptide SFU,"[1]; patient J, max peptide 196 SFU",′′′ (41-70% = ′′′)
same,Significant response as percentage of maximal peptide SFU,"[1]; patient K, max peptide 53 SFU",′′ (21-40% = ′′)
same,IFN-γ ELISpot response,"[1]; patient N, 3-5yrs, cut-off 10 SFU",5 SFU
same,IFN-γ ELISpot response,"[1]; patient P, 11-17 yrs, cut-off 21.6 SFU",21 SFU
same,IFN-γ ELISpot response,"[1]; patient Q, 11-17 yrs, cut-off 10 SFU",37 SFU
same,Significant response as percentage of maximal peptide SFU,"[1]; patient Q, max peptide 97 SFU",′′ (21-40% = ′′)
same,IFN-γ ELISpot response,"[1]; patient U, H, 11-17 yrs, cut-off 10 SFU",30 SFU
same,Significant response as percentage of maximal peptide SFU,"[1]; patient U, max peptide 81 SFU",′′ (21-40% = ′′)
same,IFN-γ ELISpot response,"[1]; patient V, 6-10 yrs, cut-off 10 SFU",11 SFU
same,Significant response as percentage of maximal peptide SFU,"[1]; patient V, max peptide 35 SFU",′′ (21-40% = ′′)
same,IFN-γ ELISpot response,"[1]; patient Y, 6-10 yrs, cut-off 10 SFU",3 SFU
same,IFN-γ ELISpot response,"[1]; patient eleven, 6-10 yrs, cut-off 10 SFU",4 SFU
same,Significant response as percentage of maximal peptide SFU,"[1]; patient five, max peptide 48 SFU",+ (>70% = +)
same,IFN-γ ELISpot response,"[1]; patient four, 3-5yrs, cut-off 10 SFU",9 SFU
same,IFN-γ ELISpot response,"[1]; patient seven, 6-10 yrs, cut-off 10.5 SFU",13 SFU
same,Significant response as percentage of maximal peptide SFU,"[1]; patient seven, max peptide 27 SFU",′′′ (41-70% = ′′′)
same,IFN-γ ELISpot response,"[1]; patient ten, 3-5yrs, cut-off 10 SFU",9 SFU
same,IFN-γ ELISpot response,"[1]; patient three, 6-10 yrs, cut-off 10.5 SFU",136 SFU
same,IFN-γ ELISpot response,"[1]; patient twelve, 11-17 yrs, cut-off 10 SFU",12 SFU
same,IFN-γ ELISpot response,"[1]; patient two, 3-5yrs, cut-off 10 SFU",17 SFU
same,Significant response as percentage of maximal peptide SFU,"[1]; patient two, max peptide 60 SFU",′′ (21-40% = ′′)
same,Dominance scores 18+ yrs,[2],31
W07 (QPFPQPEQPFCQQ) [Peptide W07],Dominance score 3-5yrs (n = 9),[1],38.2
same,Dominance score 6-10yrs (n = 10),[1],20.5
same,Dominance score 11-18yrs (n = 11),[1],16.2
same,Dominance score Mean all ages,[1],22.7
same,Dominance scores 3-5 yrs,[1],40
same,Dominance scores 6-10 yrs,[1],20
same,Dominance scores 11-18 yrs,[1],16
same,Dominance scores Mean all ages,[1],24
same,Dominance scores 18+ yrs,[2],8
"LQPFPQPELPYPQP [Peptide W02, contains DQ2.5-glia-a1a and a2]","magnitude of T cell responses, HLA-DQ2.5 homozygous vs heterozygous",[1],significantly greater
same,EC50 compared between age groups,"[1]; 17 children (3-5, 6-10, 11-18 yrs) and four adults, dose curve 0.1-50 ug/ml",a difference was observed between 3-5 yrs and 6-10 yrs
same,Dominance score 3-5yrs (n = 9),[1],74.8
same,Dominance score 6-10yrs (n = 10),[1],56.9
same,Dominance score 11-18yrs (n = 11),[1],59.6
same,Dominance score Mean all ages,[1],63.3
same,dominance hierarchy across all age groupings,[1]; Example 5,most dominant three peptides
same,dominance hierarchy across all age groups,[1]; Example 6,most dominant four peptides
same,response to native vs deamidated form,[1]; all age groups,Deamidation enhanced the response
same,Dominance scores 3-5 yrs,[1],77
same,Dominance scores 6-10 yrs,[1],57
same,Dominance scores 11-18 yrs,[1],60
same,Dominance scores Mean all ages,[1],64
same,IFN-γ ELISpot responses Day 0 prior to vs Day 6 after wheat challenge,"[1]; p<0.05, Kruskal Wallis",Significant gluten-specific responses were observed on Day 6 only
same,Dominance scores 18+ yrs,[2],58
